Drawing on US20240287076A1, “COMPOUNDS FOR TARGETING DEGRADATION OF BRUTON'S TYROSINE KINASE” (BIOGEN MA INC., priority 2021, published 2024), this text covers DC50 for 20 compounds.

The target in this test is T1, BTK (Homo sapiens, UniProt Q06187).
T1 construct: The GM01501.3 cell line endogenously expresses BTK with a HiBiT fusion tag via CRISPR knock-in at its C-terminal region; endogenous in cells; host or cells: GM01501.3 (GM01501 cells engineered by CRISPR knock-in of HiBiT at the BTK locus)
T1 sequence (Q06187 whole entry, the tested form may be a part): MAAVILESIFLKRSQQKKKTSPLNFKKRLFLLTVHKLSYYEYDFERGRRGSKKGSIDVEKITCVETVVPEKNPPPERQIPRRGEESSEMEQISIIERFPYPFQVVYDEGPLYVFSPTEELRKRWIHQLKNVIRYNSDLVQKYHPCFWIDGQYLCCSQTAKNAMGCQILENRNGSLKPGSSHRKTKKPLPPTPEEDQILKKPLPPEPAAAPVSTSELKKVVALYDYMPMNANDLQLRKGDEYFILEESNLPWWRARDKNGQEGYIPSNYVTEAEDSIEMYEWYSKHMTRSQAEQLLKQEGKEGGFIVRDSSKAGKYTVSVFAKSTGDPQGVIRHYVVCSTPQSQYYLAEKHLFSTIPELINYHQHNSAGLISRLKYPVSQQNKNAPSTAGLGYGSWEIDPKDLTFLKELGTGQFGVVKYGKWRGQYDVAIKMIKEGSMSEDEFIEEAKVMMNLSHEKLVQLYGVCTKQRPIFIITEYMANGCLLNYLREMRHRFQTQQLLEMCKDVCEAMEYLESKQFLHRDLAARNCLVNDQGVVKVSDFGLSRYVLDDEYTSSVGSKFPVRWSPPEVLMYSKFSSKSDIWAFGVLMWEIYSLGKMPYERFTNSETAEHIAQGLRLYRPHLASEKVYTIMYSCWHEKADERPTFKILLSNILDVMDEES
The experiment in a line: BTK degradation assay using the HiBiT Method (Nano-Glo HiBiT Lytic Assay, GM01501.3 cells). The conditions noted are these: HiBiT Degradation on GM01501.3 BTK @ 6 hours. It counts as cell-based. Put shortly:
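Degradation read-out: HiBiT luminescence after lytic reagent addition, giving DC50. Compounds dosed from 10 μM in 11 half-log steps (duplicate) onto GM01501.3 cells, whose endogenous BTK carries a C-terminal HiBiT knock-in tag; 6 h exposure, 37 °C, 5% CO2.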

The structures appear in SMILES notation. Bounds are passed on as bounds.

As for `Cc1cc(-c2ncnn3cc(-c4ccc(OCCN5CCC(c6ccc(C7CCC(=O)NC7=O)cc6)CC5)cc4)cc23)ccc1CNC(=O)c1noc(C(C)(C)C)n1` (centres unmarked) [Example 104, 5-tert-butyl-N-[[4-[6-[4-[2-[4-[4-(2,6-dioxo-3-piperidyl)phenyl]-1-piperidyl]ethoxy]phenyl]pyrrolo[2,1-f][1,2,4]triazin-4-yl]-2-methyl-phenyl]methyl]-1,2,4-oxadiazole-3-carboxamide], the DC50 is < 0.1 µM.

Compound `Cc1cc(-c2ncnn3cc(CN4CCN(CCCc5ccc(NC6CCC(=O)NC6=O)cc5)CC4)cc23)ccc1CNC(=O)c1noc(C(C)(C)C)n1` (centres unmarked) [Example 126, 5-tert-butyl-N-[[4-[6-[[4-[3-[4-[(2,6-dioxo-3-piperidyl)amino]phenyl]propyl]piperazin-1-yl]methyl]pyrrolo[2,1-f][1,2,4]triazin-4-yl]-2-methyl-phenyl]methyl]-1,2,4-oxadiazole-3-carboxamide] showed a DC50 of 0.1 to 0.5 µM.

With `Cc1cc(-c2ncnn3cc(-c4ccc(CN5CCC(c6ccc(NC7CCC(=O)NC7=O)cc6)CC5)cc4)cc23)ccc1CNC(=O)c1ccc(C(C)C)nc1` (centres unmarked) [Example 69, N-[[4-[6-[4-[[4-[4-[(2,6-dioxo-3-piperidyl)amino]phenyl]-1-piperidyl]methyl]phenyl]pyrrolo[2,1-f][1,2,4]triazin-4-yl]-2-methyl-phenyl]methyl]-6-isopropyl-pyridine-3-carboxamide], the 50% degradation concentration (DC50) is < 0.1 µM.

Take `Cc1cc(-c2ncnn3cc(-c4cccc(-n5cc(CN6CCC(c7ccc(C8CCC(=O)NC8=O)cc7)CC6)c(C)n5)c4)cc23)ccc1CNC(=O)c1noc(C(C)(C)C)n1` (centres unmarked) [Example 205, 5-(tert-butyl)-N-(4-(6-(3-(4-((4-(4-(2,6-dioxopiperidin-3-yl)phenyl)piperidin-1-yl)methyl)-3-methyl-1H-pyrazol-1-yl)phenyl)pyrrolo[2,1-f][1,2,4]triazin-4-yl)-2-methylbenzyl)-1,2,4-oxadiazole-3-carboxamide]: the DC50 was < 0.1 µM.

For `Cc1cc(-c2ccnc3cn(CCCCN4CCC(c5ccc(NC6CCC(=O)NC6=O)cc5)CC4)nc23)ccc1CNC(=O)c1noc(C(C)(C)C)n1` (centres unmarked) [Example 224, 5-tert-butyl-N-[[4-[2-[4-[4-[4-[(2,6-dioxo-3-piperidyl)amino]phenyl]-1-piperidyl]butyl]pyrazolo[4,3-b]pyridin-7-yl]-2-methyl-phenyl]methyl]-1,2,4-oxadiazole-3-carboxamide], the 50% degradation concentration (DC50) was < 0.1 µM.

In the case of `Cc1cc(-c2ncnn3cc(-c4ccc(CN5CCC(Oc6ccc(NC7CCC(=O)NC7=O)cc6)CC5)cc4)cc23)ccc1CNC(=O)c1noc(C(C)(C)C)n1` (centres unmarked) [Example 201, 5-(tert-butyl)-N-(4-(6-(4-((4-(4-((2,6-dioxopiperidin-3-yl)amino)phenoxy)piperidin-1-yl)methyl)phenyl)pyrrolo[2,1-f][1,2,4]triazin-4-yl)-2-methylbenzyl)-1,2,4-oxadiazole-3-carboxamide], the DC50 is < 0.1 µM.

Compound `Cc1cc(-c2ncnn3cc(-c4ccc5sc(CN6CCC(c7ccc(C8CCC(=O)NC8=O)cc7)CC6)cc5n4)cc23)ccc1CNC(=O)c1noc(C(C)(C)C)n1` (centres unmarked) [Example 218, 5-(tert-butyl)-N-(4-(6-(2-((4-(4-(2,6-dioxopiperidin-3-yl)phenyl)piperidin-1-yl)methyl)thieno[3,2-b]pyridin-5-yl)pyrrolo[2,1-f] [1,2,4]triazin-4-yl)-2-methylbenzyl)-1,2,4-oxadiazole-3-carboxamide] registered a DC50 of 0.1 to 0.5 µM.

Regarding `CC(C)(C)c1nc(C(=O)NCc2ccc(-c3ncnn4cc(-c5ccc(CN6CCC(CCc7ccc(OC8CCC(=O)NC8=O)cc7)CC6)cn5)cc34)cc2F)no1` (centres unmarked) [Example 239, 5-(tert-butyl)-N-(4-(6-(5-((4-(4-((2,6-dioxopiperidin-3-yl)oxy)phenethyl)piperidin-1-yl)methyl)pyridin-2-yl)pyrrolo [2,1-f][1,2,4]triazin-4-yl)-2-fluorobenzyl)-1,2,4-oxadiazole-3-carboxamide], the DC50 is < 0.1 µM.

In the case of `Cc1cc(-c2ncnn3cc(COCCN4CCC(c5ccc(NC6CCC(=O)NC6=O)cc5)CC4)cc23)ccc1CNC(=O)c1noc(C(C)(C)C)n1` (centres unmarked) [Example 143, 5-tert-butyl-N-[[4-[6-[2-[4-[4-[(2,6-dioxo-3-piperidyl)amino]phenyl]-1-piperidyl]ethoxymethyl]pyrrolo[2,1-f][1,2,4]triazin-4-yl]-2-methyl-phenyl]methyl]-1,2,4-oxadiazole-3-carboxamide], the DC50 is < 0.1 µM.

For the compound `Cc1cc(-c2ccnn3cc(-c4ccc(CN5CCC(c6ccc(NC7CCC(=O)NC7=O)cc6)CC5)cc4)cc23)ccc1CNC(=O)c1noc(C(C)(C)C)n1` (centres unmarked) [Example 154, 5-tert-butyl-N-[[4-[6-[4-[[4-[4-[(2,6-dioxo-3-piperidyl)amino]phenyl]-1-piperidyl]methyl]phenyl]pyrrolo[1,2-b]pyridazin-4-yl]-2-methyl-phenyl]methyl]-1,2,4-oxadiazole-3-carboxamide], the half-maximal degradation concentration (DC50) is < 0.1 µM.

Regarding `Cc1cc(-c2ncnn3cc(-c4cccc(CN5CCC(c6ccc(C7CCC(=O)NC7=O)cc6)CC5)n4)cc23)ccc1CNC(=O)c1noc(C(C)(C)C)n1` (centres unmarked) [Example 214, 5-(tert-butyl)-N-(4-(6-(6-((4-(4-(2,6-dioxopiperidin-3-yl)phenyl)piperidin-1-yl)methyl)pyridin-2-yl)pyrrolo [2,1-f][1,2,4]triazin-4-yl)-2-methylbenzyl)-1,2,4-oxadiazole-3-carboxamide], the DC50 is < 0.1 µM.

Regarding `Cc1cc(-c2ncnn3cc(N4CCN(C(=O)CCC5CCCN5C(=O)c5ccc(OC6CCC(=O)NC6=O)cc5)CC4)cc23)ccc1CNC(=O)c1noc(C(C)(C)C)n1` (centres unmarked) [Example 181, 5-(tert-butyl)-N-(4-(6-(4-(3-(1-(4-((2,6-dioxopiperidin-3-yl)oxy)benzoyl)pyrrolidin-2-y1)propanoyl)piperazin-1-yl)pyrrolo[2,1-f][1,2,4]triazin-4-yl)-2-methylbenzyl)-1,2,4-oxadiazole-3-carboxamide], the DC50 is < 0.1 µM.

For `CN(CCOc1ccc(OC2CCC(=O)NC2=O)cc1)Cc1ccc(-c2cc3c(-c4ccc(CNC(=O)c5noc(C(C)(C)C)n5)c(F)c4)ncnn3c2)nc1` (centres unmarked) [Example 229, 5-(tert-butyl)-N-(4-(6-(5-(((2-(4-((2,6-dioxopiperidin-3-yl)oxy)phenoxy)ethyl)(methyl)amino)methyl)pyridin-2-yl)pyrrolo[2,1-f][1,2,4]triazin-4-yl)-2-fluorobenzyl)-1,2,4-oxadiazole-3-carboxamide], the half-maximal degradation concentration (DC50) is < 0.1 µM.

Consider `Cc1cc(-c2ncnn3cc(CCN4CCC(c5ncc(NC6CCC(=O)NC6=O)cc5F)CC4)cc23)ccc1CNC(=O)c1noc(C(C)(C)C)n1` (centres unmarked) [Example 251, 5-(tert-butyl)-N-(4-(6-(2-(4-(5-((2,6-dioxopiperidin-3-yl)amino)-3-fluoropyridin-2-yl)piperidin-1-yl)ethyl)pyrrolo[2,1-f][1,2,4]triazin-4-yl)-2-methylbenzyl)-1,2,4-oxadiazole-3-carboxamide], for which the DC50 was < 0.1 µM.

In the case of `Cc1cc(-c2ncnn3cc(CCCN4CCC(c5ccc(NC6CCC(=O)NC6=O)cc5)CC4)cc23)ccc1CNC(=O)c1noc(C(C)(C)C)n1` (centres unmarked) [Example 127, 5-tert-butyl-N-[[4-[6-[3-[4-[4-[(2,6-dioxo-3-piperidyl)amino]phenyl]-1-piperidyl]propyl]pyrrolo[2,1-f][1,2,4]triazin-4-yl]-2-methyl-phenyl]methyl]-1,2,4-oxadiazole-3-carboxamide], the DC50 was < 0.1 µM.

For `Cc1cc(-c2ncnn3cc(N4CCN(CCCCc5ccc6c(N7CCC(=O)NC7=O)nn(C)c6c5)CC4)cc23)ccc1CNC(=O)c1noc(C(C)(C)C)n1` [Example 297, 5-(tert-butyl)-N-(4-(6-(4-(4-(3-(2,4-dioxotetrahydropyrimidin-1(2H)-yl)-1-methyl-1H-indazol-6-yl)butyl)piperazin-1-yl)pyrrolo[2,1-f][1,2,4]triazin-4-yl)-2-methylbenzyl)-1,2,4-oxadiazole-3-carboxamide], the half-maximal degradation concentration (DC50) is < 0.1 µM.

For the compound `Cc1cc(-c2ccnc3nn(CCCCN4CCC(c5ccc(NC6CCC(=O)NC6=O)cc5)CC4)cc23)ccc1CNC(=O)c1noc(C(C)(C)C)n1` (centres unmarked) [Example 160, 5-tert-butyl-N-[[4-[2-[4-[4-[4-[(2,6-dioxo-3-piperidyl)amino]phenyl]-1-piperidyl]butyl]pyrazolo[3,4-b]pyridin-4-yl]-2-methyl-phenyl]methyl]-1,2,4-oxadiazole-3-carboxamide], the DC50 is > 1 µM.

For `Cc1cc(-c2ncnn3cc(CCN4CCC(c5ccc6c(C7CCC(=O)NC7=O)nn(C)c6c5)CC4)cc23)ccc1CNC(=O)c1ccn(C(C)(C)C)n1` (centres unmarked) [Example 273, 1-(tert-butyl)-N-(4-(6-(2-(4-(3-(2,6-dioxopiperidin-3-yl)-1-methyl-1H-indazol-6-yl)piperidin-1-yl)ethyl)pyrrolo[2,1-f][1,2,4]triazin-4-yl)-2-methylbenzyl)-1H-pyrazole-3-carboxamide], the DC50 is < 0.1 µM.

In turn, `Cc1cc(-c2ncnn3cc(-c4ccc(CN5CCCC(c6ccc(C7CCC(=O)NC7=O)cc6)C5)cc4)cc23)ccc1CNC(=O)c1noc(C(C)(C)C)n1` (centres unmarked) [Example 8, 5-tert-butyl-N-[[4-[6-[4-[[3-[4-(2,6-dioxo-3-piperidyl)phenyl]-1-piperidyl]methyl]phenyl]pyrrolo[2,1-f][1,2,4]triazin-4-yl]-2-methyl-phenyl]methyl]-1,2,4-oxadiazole-3-carboxamide] showed a DC50 of 0.1 to 0.5 µM.

`Cc1cc(-c2ccnc3sc(-c4ccc(CN5CCC(c6ccc(NC7CCC(=O)NC7=O)cc6)CC5)cc4)cc23)ccc1CNC(=O)c1noc(C(C)(C)C)n1` (centres unmarked) [Example 157, 5-tert-butyl-N-[[4-[2-[4-[[4-[4-[(2,6-dioxo-3-piperidyl)amino]phenyl]-1-piperidyl]methyl]phenyl]thieno[2,3-b]pyridin-4-yl]-2-methyl-phenyl]methyl]-1,2,4-oxadiazole-3-carboxamide] came in with a half-maximal degradation concentration (DC50) of 0.1 to 0.5 µM.
